# Experiments:
# Type in all cases: cell-based, human
# [1] = tested on: T cells; assay: Intracellular cytokine staining of T cells; conditions: Brefeldin A, FIG. 9
# Method: (§1) To identify cytokines that can be used to measure potency of a Listeria-based therapeutic the following tests were performed. Intracellular cytokine staining was used to detect T cells specificity. THP-1 were incubated with peptide overnight, mixed with T cells from above and centrifuged. The collected cells were then co-cultured at 37° C. for 1 hour. Brefeldin A was then added and the cells were co-cultured for another 4 hours. Brefeldin A inhibits secretion and permits analysis by flow cytometry. Cell were then stained to identify dead cells and CD8+ cells. The cell were then fixed and stained for IFNγ (using fix and permeabilization buffer from eBioscience/Invitrogen).
# [2] = tested on: E7 (11-20) specific T cells; assay: Initial THP-1 / T cell co-culture cytokine production (T cell culture with 6% E7 (11-20) specific T cells); design: IFNγ / TNF-α / IL-10 / IL-12p70 / IL-13 / IL-1β / IL-2 / IL-4 / IL-6 / IL-8: unit not given here
# Method: Analysis Kits and Reagents: Analysis of cytokine concentrations in culture medium used the U-plex assay kits from Meso Scale Discovery. Expression of T cell receptors specific for E7 peptide bound to HLA-A*02:01 was detected using HLA-A*02:01/peptide tetramers from MBL International (Woburn, Mass.).
# Infection of THP-1: The THP-1 cell line was infected with either ADXS11-001 or XFL7 by incubating 10^6 cells with dilutions of bacteria in a 1 mL volume of RPMI 1640 10% FBS. Incubation with bacteria was at 37° C., 5% CO2 for the indicated times, then extracellular bacteria were eliminated by washing and incubation in the presence of 50 μg/mL gentamicin for 1 hour at 37° C. After incubation with gentamicin the cells were washed again and resuspended to the desired cell concentration.
# T cell cytokine expression analysis. An initial experiment using THP-1 as antigen presenting cells was performed using a T cell culture containing 6% E7 (11-20) specific T cells based upon staining with HLA-A*02:01/peptide tetramer. THP-1 cells were infected as described using two different concentrations of bacteria and then co-cultured with the T cells. Controls included uninfected THP-1 cells and THP-1 cells incubated with (exposed to) either the 9mer or 10mer peptide for one hour. After an overnight co-culture, medium was collected for analysis of cytokines.
# [3] = tested on: THP-1 cells; assay: Intracellular cytokine staining of THP-1 cells; conditions: FIGS. 3A-3C, FIG. 10
# Method: as §1
# Intracellular cytokine staining of THP-1 cells.
# [4] = tested on: HPV E7 Specific T cells; assay: THP-1/T cell co-culture: MOI, infection time and cell ratio titration; design: IFNγ / IL-1β / IL-6 / TNF-α: unit not given here; conditions: for IFNγ production / IFNγ / IL-1β / IL-6 / TNF-α: THP-1 + peptide; for IFNγ production: THP-1 Cells 40000
# Method: A separate experiment was performed with a range of MOI and 5 hours infection time. In this experiment only IFNγ was measured since this cytokine is only made by the T cells, not THP-1 cells. While there was still recognition of the ADXS11-001 infected THP-1 cells it was not as great as that observed in overnight cultures when compared to the peptide incubated THP-1.
# The MOI used for infection was varied over a range of bacterial concentration. In Table 12 the effect of the different MOI on cytokine secretion by THP-1 is shown. […] Secretion of IFNγ by the T cells was related to the MOI with higher MOI stimulating higher IFNγ production, though there was significant IFNγ at all MOI.
# Cell number and ratio of T cells to THP-1 cells was also analyzed. The above experiments all used 20,000 T cells and 20,000 THP-1 cells per well (1:1 ratio). We initially investigated the effect of cell number using THP-1 incubated with peptide. The number of both T cells and THP-1 were varied. THP-1 cells ranging from 40,000 cells to 5000 cells per well were incubated with T cells ranging from 20,000 to 5000 cells per well. Effect of varying THP-1 to T cell ratio on IFNγ production was investigated at both higher (1 μg/ml) and lower (0.1 μg/ml) peptide concentrations.
# We investigated if this effect is reproducible in infected THP cells. Varying concentration of infected THP-1 cells ranging from 40000 to 10000 cells per well were incubated with T cells ranging from 40000 to 10000 cells per well to identify the optimum cell ratio for the assay. The effect of cell ratio on IFNγ production is similar to the effect observed with peptide incubation.
# Titration studies with different multiplicity of infection (MOI). THP cells were infected for 2 hours with 3 different dilutions (MOI) of Listeria. Infected or uninfected THP cells were then cultured overnight for 24 hours before co-culturing the T cells. Cells were co-cultured overnight before cytokine analysis.
# [5] = T cells and THP-1 incubated with peptide one hour, overnight co-culture
sequence,measurement,setting,value
YMLDLQPETT [10mer],IFNγ in T cells after stimulation with peptide,[1],higher levels of IFNγ
same,IFNγ,[2]; [5],17140.7
same,IL-1β,[2]; [5],7.0
same,IL-2,[2]; [5],315.2
same,IL-4,[2]; [5],11.9
same,IL-6,[2]; [5],19.6
same,IL-8,[2]; [5],6099.7
same,IL-10,[2]; [5],34.0
same,IL-12p70,[2]; [5],7.4
same,IL-13,[2]; [5],508.4
same,TNF-α,[2]; [5],1192.3
same,T cell cytokine response to peptide presented by THP-1,[2]; relative to T cells co-cultured with control or uninfected THP-1 cells,"elevated levels of IFNγ, IL-13, IL-2, IL-8 and TNFα"
same,Basal IFNγ in THP-1 cells after stimulation with peptide,[3],not detectable
same,IFNγ production,[4]; T Cells 10000,8078
same,IFNγ production,[4]; T Cells 20000,17968
same,IFNγ production,[4]; T Cells 40000,34161
same,IFNγ,[4]; THP/T cell co-culture,33835
same,IL-1β,[4]; THP/T cell co-culture,3
same,IL-6,[4]; THP/T cell co-culture,23
same,TNF-α,[4]; THP/T cell co-culture,697
same,IFNγ,[4]; co-culture with T cells,65099
same,IL-1β,[4]; co-culture with T cells,6
same,IL-6,[4]; co-culture with T cells,1243
same,TNF-α,[4]; co-culture with T cells,2309
same,IFNγ Mean,"[4]; THP-1 incubated with peptide, mean of triplicate",41305 pg/mL

# Source: patent US20210239681A1, “COMPOSITIONS AND METHODS FOR […] OF […]-BASED IMMUNOTHERAPEUTICS” (ADVAXIS, INC., priority 2018, published 2021)
